# Measurements: ChEMBL document CHEMBL4196087 (Eur J Med Chem, 2018)
# Assays:
# [1] = test system: MDA-MB-231; test: Growth inhibition of human MDA-MB-231 cells at 10^-5 M incubated for 48 hrs by sulforhodamine B assay relative to control; type: functional; settings: MDA-MB-231, 48 h, read-out: GI
# [2] = biological target: T1, DNA topoisomerase 2-beta (Homo sapiens, UniProt Q02880); test: Potency index, ratio of amsacrine IC50 to compound IC50 for inhibition of human topoisomerase-2B
# [3] = test system: UO-31; test: Induction of apoptosis in human UO31 cells assessed as necrotic cells at 0.72 uM after 24 hrs by Annexin V-FITC/propidium iodide staining based flow cytometry (reference value: 0.08%); type: functional
# [4] = test system: UO-31; test: Cell cycle arrest in human UO31 cells assessed as accumulation at G2 phase at 0.72 uM after 24 hrs by propidium iodide staining based flow cytometry (reference value: 5.49%); type: functional
# [5] = test system: HL-60(TB); test: Growth inhibition of human HL-60(TB) cells at 10^-5 M incubated for 48 hrs by sulforhodamine B assay relative to control; type: functional; settings: HL-60, 48 h, read-out: GI
# [6] = test system: UO-31; test: Cell cycle arrest in human UO31 cells assessed as accumulation at G1 phase at 0.72 uM after 24 hrs by propidium iodide staining based flow cytometry (reference value: 69.55%); type: functional
# [7] = test system: SK-MEL-5; test: Growth inhibition of human SK-MEL-5 cells at 10^-5 M incubated for 48 hrs by sulforhodamine B assay relative to control; type: functional; settings: SK-MEL-5, 48 h, read-out: GI
# [8] = test system: T47D; test: Growth inhibition of human T47D cells at 10^-5 M incubated for 48 hrs by sulforhodamine B assay relative to control; type: functional; settings: read-out: GI
# [9] = test system: Staphylococcus aureus; test: Antibacterial activity against Staphylococcus aureus at 37 degC measured after 24 hrs by agar disc diffusion method; type: functional
# [10] = test system: HOP-62; test: Growth inhibition of human HOP62 cells at 10^-5 M incubated for 48 hrs by sulforhodamine B assay relative to control; type: functional; settings: HOP-62, 48 h, read-out: GI
# [11] = test system: LOX IMVI; test: Growth inhibition of human LOXIMVI cells at 10^-5 M incubated for 48 hrs by sulforhodamine B assay relative to control; type: functional; settings: read-out: GI
# [12] = test system: Pseudomonas aeruginosa; test: Antibacterial activity against Pseudomonas aeruginosa at 37 degC measured after 24 hrs by agar disc diffusion method; type: functional
# [13] = test system: Bacillus subtilis; test: Antibacterial activity against Bacillus subtilis at 37 degC measured after 24 hrs by agar disc diffusion method; type: functional
# [14] = test system: UO-31; test: Potency index, ratio of doxorubicin IC50 to compound IC50 for antiproliferative activity against human UO31 cells; type: functional
# [15] = test system: UO-31; test: Antiproliferative activity against human UO31 cells after 48 hrs by SRB assay; type: functional; settings: UO-31, 48 h
# [16] = test system: NCI-H226; test: Antiproliferative activity against human NCI-H226 cells after 48 hrs by MTT assay; type: functional, cell-based; settings: NCI-H226, 48 h
# [17] = test system: IGROV-1; test: Potency index, ratio of doxorubicin IC50 to compound IC50 for antiproliferative activity against human IGROV1 cells; type: functional
# [18] = test system: NCI-H226; test: Antiproliferative activity against human NCI-H226 cells after 48 hrs by SRB assay; type: functional; settings: NCI-H226, 48 h, read-out: LC50 (the source's name)
# [19] = test system: UO-31; test: Induction of apoptosis in human UO31 cells assessed as early apoptotic cells at 0.72 uM after 24 hrs by Annexin V-FITC/propidium iodide staining based flow cytometry (reference value: 0.19%); type: functional
# [20] = test system: MOLT-4; test: Growth inhibition of human MOLT4 cells at 10^-5 M incubated for 48 hrs by sulforhodamine B assay relative to control; type: functional; settings: MOLT-4, 48 h, read-out: GI
# [21] = test system: NCI-H226; test: Growth inhibition of human NCI-H226 cells at 10^-5 M incubated for 48 hrs by sulforhodamine B assay relative to control; type: functional; settings: NCI-H226, 48 h, read-out: GI
# [22] = test system: RPMI-8226; test: Growth inhibition of human RPMI8226 cells at 10^-5 M incubated for 48 hrs by sulforhodamine B assay relative to control; type: functional; settings: RPMI-8226, 48 h, read-out: GI
# [23] = test system: MCF7; test: Growth inhibition of human MCF7 cells at 10^-5 M incubated for 48 hrs by sulforhodamine B assay relative to control; type: functional; settings: MCF7, 48 h, read-out: GI
# [24] = test system: UO-31; test: Growth inhibition of human UO31 cells at 10^-5 M incubated for 48 hrs by sulforhodamine B assay relative to control; type: functional; settings: UO-31, 48 h, read-out: GI
# [25] = test system: HOP-92; test: Growth inhibition of human HOP92 cells at 10^-5 M incubated for 48 hrs by sulforhodamine B assay relative to control; type: functional; settings: HOP-92, 48 h, read-out: GI
# [26] = test system: UO-31; test: Induction of apoptosis in human UO31 cells assessed as late apoptotic cells at 0.72 uM after 24 hrs by Annexin V-FITC/propidium iodide staining based flow cytometry (reference value: 0.22%); type: functional
# [27] = test system: UO-31; test: Induction of apoptosis in human UO31 cells assessed as caspase-3 activation by measuring active caspase-3 level at 0.72 uM by […] (reference value: 66 pg/ml); type: functional
# [28] = test system: UO-31; test: Cell cycle arrest in human UO31 cells assessed as apoptotic cells at 0.72 uM after 24 hrs by propidium iodide staining based flow cytometry (reference value: 0.49%); type: functional
# [29] = test system: IGROV-1; test: Growth inhibition of human IGROV1 cells at 10^-5 M incubated for 48 hrs by sulforhodamine B assay relative to control; type: functional; settings: IGROV-1, 48 h, read-out: GI
# [30] = test system: UO-31; test: Cell cycle arrest in human UO31 cells assessed as accumulation at pre-G1 phase at 0.72 uM after 24 hrs by propidium iodide staining based flow cytometry relative to control; type: functional
# [31] = test system: IGROV-1; test: Antiproliferative activity against human IGROV1 cells after 48 hrs by SRB assay; type: functional; settings: IGROV-1, 48 h, read-out: LC50 (the source's name)
# [32] = test system: NCI-H226; test: Potency index, ratio of doxorubicin IC50 to compound IC50 for antiproliferative activity against human NCI-H226 cells; type: functional
# [33] = test system: Escherichia coli; test: Antibacterial activity against Escherichia coli at 37 degC measured after 24 hrs by agar disc diffusion method; type: functional
# [34] = test system: IGROV-1; test: Antiproliferative activity against human IGROV1 cells after 48 hrs by MTT assay; type: functional, cell-based; settings: IGROV-1, 48 h
# [35] = test system: UO-31; test: Cell cycle arrest in human UO31 cells assessed as accumulation at S phase at 0.72 uM after 24 hrs by propidium iodide staining based flow cytometry (reference value: 24.47%); type: functional
# [36] = test system: SNB-75; test: Growth inhibition of human SNB75 cells at 10^-5 M incubated for 48 hrs by sulforhodamine B assay relative to control; type: functional; settings: SNB-75, 48 h, read-out: GI
# [37] = test system: UO-31; test: Cell cycle arrest in human UO31 cells assessed as accumulation at G2/M phase at 0.72 uM after 24 hrs by propidium iodide staining based flow cytometry relative to control; type: functional
# [38] = test system: SF-539; test: Growth inhibition of human SF539 cells at 10^-5 M incubated for 48 hrs by sulforhodamine B assay relative to control; type: functional; settings: SF-539, 48 h, read-out: GI
# [39] = test system: CCRF-CEM; test: Growth inhibition of human CCRF-CEM cells at 10^-5 M incubated for 48 hrs by sulforhodamine B assay relative to control; type: functional; settings: read-out: GI
# [40] = test system: UO-31; test: Antiproliferative activity against human UO31 cells after 48 hrs by MTT assay; type: functional, cell-based; settings: UO-31, 48 h
# [41] = test system: MDA-MB-468; test: Growth inhibition of human MDA-MB-468 cells at 10^-5 M incubated for 48 hrs by sulforhodamine B assay relative to control; type: functional; settings: MDA-MB-468, 48 h, read-out: GI
# [42] = test system: A498; test: Growth inhibition of human A498 cells at 10^-5 M incubated for 48 hrs by sulforhodamine B assay relative to control; type: functional; settings: A498, 48 h, read-out: GI
# [43] = test system: K562; test: Growth inhibition of human K562 cells at 10^-5 M incubated for 48 hrs by sulforhodamine B assay relative to control; type: functional; settings: K562, 48 h, read-out: GI
# [44] = test system: UO-31; test: Induction of apoptosis in human UO31 cells assessed as live cells at 0.72 uM after 24 hrs by Annexin V-FITC/propidium iodide staining based low cytometry (reference value: 97.84%); type: functional
# [45] = biological target: T1, DNA topoisomerase 2-beta; test: Inhibition of human topoisomerase-2B after 2 hrs by ELISA
# [46] = test system: PC-3; test: Growth inhibition of human PC3 cells at 10^-5 M incubated for 48 hrs by sulforhodamine B assay relative to control; type: functional; settings: PC-3, 48 h, read-out: GI
# [47] = biological target: T1, DNA topoisomerase 2-beta; test: Potency index, ratio of doxorubicin IC50 to compound IC50 for inhibition of human topoisomerase-2B
# [48] = test system: UO-31; test: Induction of apoptosis in human UO31 cells assessed as caspase-3 activation by measuring active caspase-3 level at 6.44 uM by […] (reference value: 66 pg/ml); type: functional
# [49] = test system: HL-60; test: Antiproliferative activity against human HL60 cells after 48 hrs by MTT assay; type: functional, cell-based; settings: HL-60, 48 h
# [50] = test system: MDA-MB-468; test: Antiproliferative activity against human MDA-MB-468 cells after 48 hrs by MTT assay; type: functional, cell-based; settings: MDA-MB-468, 48 h
# T1 sequence (Q02880 whole entry): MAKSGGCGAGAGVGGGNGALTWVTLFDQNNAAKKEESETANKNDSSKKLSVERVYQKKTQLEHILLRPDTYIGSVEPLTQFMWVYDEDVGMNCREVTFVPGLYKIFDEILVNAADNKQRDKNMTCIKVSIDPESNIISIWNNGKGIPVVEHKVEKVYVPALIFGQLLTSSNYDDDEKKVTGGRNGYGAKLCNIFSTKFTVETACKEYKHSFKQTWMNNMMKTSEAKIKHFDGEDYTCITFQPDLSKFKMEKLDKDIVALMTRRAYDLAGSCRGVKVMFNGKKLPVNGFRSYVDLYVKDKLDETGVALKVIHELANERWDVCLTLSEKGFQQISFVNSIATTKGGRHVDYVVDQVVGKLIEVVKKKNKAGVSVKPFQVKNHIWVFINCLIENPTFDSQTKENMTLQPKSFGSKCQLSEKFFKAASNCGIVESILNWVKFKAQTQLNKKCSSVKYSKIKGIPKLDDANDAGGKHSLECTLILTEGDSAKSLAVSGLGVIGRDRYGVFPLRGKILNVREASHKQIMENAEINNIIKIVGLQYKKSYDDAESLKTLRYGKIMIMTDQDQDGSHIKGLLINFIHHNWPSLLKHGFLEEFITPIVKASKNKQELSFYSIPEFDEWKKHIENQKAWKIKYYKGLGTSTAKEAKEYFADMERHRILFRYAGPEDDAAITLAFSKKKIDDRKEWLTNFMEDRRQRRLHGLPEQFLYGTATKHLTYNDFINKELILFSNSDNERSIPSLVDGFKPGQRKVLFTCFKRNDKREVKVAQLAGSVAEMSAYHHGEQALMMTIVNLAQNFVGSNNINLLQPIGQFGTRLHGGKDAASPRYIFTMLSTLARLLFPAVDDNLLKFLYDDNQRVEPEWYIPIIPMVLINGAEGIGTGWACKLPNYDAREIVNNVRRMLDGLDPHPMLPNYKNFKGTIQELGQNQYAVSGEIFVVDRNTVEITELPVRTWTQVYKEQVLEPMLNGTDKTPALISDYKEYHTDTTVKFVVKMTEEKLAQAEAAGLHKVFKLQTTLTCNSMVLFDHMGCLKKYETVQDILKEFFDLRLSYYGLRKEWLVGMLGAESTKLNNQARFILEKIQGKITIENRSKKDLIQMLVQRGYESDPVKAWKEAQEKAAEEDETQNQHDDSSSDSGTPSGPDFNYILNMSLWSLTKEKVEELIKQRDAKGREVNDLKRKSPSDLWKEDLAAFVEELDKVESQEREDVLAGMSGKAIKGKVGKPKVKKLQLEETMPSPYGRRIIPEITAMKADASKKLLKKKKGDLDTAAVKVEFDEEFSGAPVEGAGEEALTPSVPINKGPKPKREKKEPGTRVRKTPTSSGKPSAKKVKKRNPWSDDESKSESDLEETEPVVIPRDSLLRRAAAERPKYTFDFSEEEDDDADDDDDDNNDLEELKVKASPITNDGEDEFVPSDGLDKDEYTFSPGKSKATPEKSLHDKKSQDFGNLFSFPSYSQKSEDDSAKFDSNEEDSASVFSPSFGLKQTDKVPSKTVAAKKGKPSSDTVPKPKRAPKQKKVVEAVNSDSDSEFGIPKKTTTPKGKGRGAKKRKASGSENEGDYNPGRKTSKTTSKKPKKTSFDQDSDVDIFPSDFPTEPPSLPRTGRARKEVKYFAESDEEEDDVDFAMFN
compound,measurement,setting,value
O=C(CN1CCN(c2cc3c(cc2F)c(=O)c(C(=O)O)cn3C2CC2)CC1)N/N=C/c1cc2ccccc2[nH]1,inhibition of growth at 10 µM,[1],28.1%
same,Ratio IC50,[2],3
same,Activity,[3],0.33%
same,Activity,[4],11.32%
same,inhibition of growth at 10 µM,[5],< 20%
same,Activity,[6],62.64%
same,inhibition of growth at 10 µM,[7],< 20%
same,inhibition of growth at 10 µM,[8],25.5%
same,diameter of the inhibition zone (DIZ),[9],25 mm
same,inhibition of growth at 10 µM,[10],29%
same,inhibition of growth at 10 µM,[11],36.6%
same,diameter of the inhibition zone (DIZ),[12],27 mm
same,diameter of the inhibition zone (DIZ),[13],27 mm
same,Ratio IC50,[14],1.5 - 9
same,LC50,[15],15.1 µM
same,IC50,[16],1.02 µM
same,Ratio IC50,[17],5.8
same,CC50,[18],15.4 µM
same,Activity,[19],2.14%
same,inhibition of growth at 10 µM,[20],< 20%
same,inhibition of growth at 10 µM,[21],34.4%
same,inhibition of growth at 10 µM,[22],< 20%
same,inhibition of growth at 10 µM,[23],< 20%
same,inhibition of growth at 10 µM,[24],34.1%
same,inhibition of growth at 10 µM,[25],29.8%
same,Activity,[26],1.88%
same,Activity,[27],293.6 pg/mL
same,Activity,[28],4.35%
same,inhibition of growth at 10 µM,[29],43.5%
same,fold change (FC),[30],8.8
same,CC50,[31],18.8 µM
same,Ratio IC50,[32],4.9
same,diameter of the inhibition zone (DIZ),[33],25 mm
same,IC50,[34],0.75 µM
same,Activity,[35],21.69%
same,inhibition of growth at 10 µM,[36],< 20%
same,fold change (FC),[37],2.06
same,inhibition of growth at 10 µM,[38],< 20%
same,inhibition of growth at 10 µM,[39],< 20%
same,IC50,[40],0.72 µM
same,inhibition of growth at 10 µM,[41],< 20%
same,inhibition of growth at 10 µM,[42],< 20%
same,inhibition of growth at 10 µM,[43],< 20%
same,Activity,[44],93.84%
same,IC50,[45],0.86 µM
same,inhibition of growth at 10 µM,[46],20.3%
same,Ratio IC50,[47],4
COc1cccc2c1C(=O)c1c(O)c3c(c(O)c1C2=O)C[C@@](O)(C(=O)CO)C[C@@H]3O[C@H]1C[C@H](N)[C@H](O)[C@H](C)O1 [DOXORUBICIN],Activity,[48],375.6 pg/mL
same,IC50,[49],8.91 µM
same,IC50,[16],5.07 µM
same,IC50,[34],4.36 µM
same,IC50,[40],6.44 µM
same,IC50,[50],2.81 µM
